Target: T1, Piezo1 ion channel (Mus musculus, UniProt E2JF22)
T1 construct: expressed in transfected cells; host or cells: HEK293
Assay: c-Fos immunostaining of cellular activation in HEK293 cells expressing Piezo1
Assay type: cell-based
Details: Yoda1 10 µM, Fig. 2, Group F
Experimental: As a model system, HEK293 cells were utilized, and the Piezo1 ion channel, a mechanosensitive ion channel, was expressed in these cells to enable responsiveness to mechanical forces. To achieve this, 5×10^5 cells were seeded in a 60 mm dish, and 5 µg of CMV-Piezo1 plasmid was transfected using Lipofectamine 3000, following the standard protocol.
HEK293 cells expressing Piezo1 were then exposed to two different ultrasound frequencies, 2.0 MHz and 6.25 MHz, for 10 minutes, corresponding to the resonance frequency(ies) of Piezo1 in HEK293 cells. The objective was to observe differences in cellular activation based on frequency. The extent of cellular activation was quantified by immunostaining for c-Fos, a reporter of intracellular calcium ion influx, and the number of activated cells was represented as a percentage.

T1 sequence (E2JF22 whole entry): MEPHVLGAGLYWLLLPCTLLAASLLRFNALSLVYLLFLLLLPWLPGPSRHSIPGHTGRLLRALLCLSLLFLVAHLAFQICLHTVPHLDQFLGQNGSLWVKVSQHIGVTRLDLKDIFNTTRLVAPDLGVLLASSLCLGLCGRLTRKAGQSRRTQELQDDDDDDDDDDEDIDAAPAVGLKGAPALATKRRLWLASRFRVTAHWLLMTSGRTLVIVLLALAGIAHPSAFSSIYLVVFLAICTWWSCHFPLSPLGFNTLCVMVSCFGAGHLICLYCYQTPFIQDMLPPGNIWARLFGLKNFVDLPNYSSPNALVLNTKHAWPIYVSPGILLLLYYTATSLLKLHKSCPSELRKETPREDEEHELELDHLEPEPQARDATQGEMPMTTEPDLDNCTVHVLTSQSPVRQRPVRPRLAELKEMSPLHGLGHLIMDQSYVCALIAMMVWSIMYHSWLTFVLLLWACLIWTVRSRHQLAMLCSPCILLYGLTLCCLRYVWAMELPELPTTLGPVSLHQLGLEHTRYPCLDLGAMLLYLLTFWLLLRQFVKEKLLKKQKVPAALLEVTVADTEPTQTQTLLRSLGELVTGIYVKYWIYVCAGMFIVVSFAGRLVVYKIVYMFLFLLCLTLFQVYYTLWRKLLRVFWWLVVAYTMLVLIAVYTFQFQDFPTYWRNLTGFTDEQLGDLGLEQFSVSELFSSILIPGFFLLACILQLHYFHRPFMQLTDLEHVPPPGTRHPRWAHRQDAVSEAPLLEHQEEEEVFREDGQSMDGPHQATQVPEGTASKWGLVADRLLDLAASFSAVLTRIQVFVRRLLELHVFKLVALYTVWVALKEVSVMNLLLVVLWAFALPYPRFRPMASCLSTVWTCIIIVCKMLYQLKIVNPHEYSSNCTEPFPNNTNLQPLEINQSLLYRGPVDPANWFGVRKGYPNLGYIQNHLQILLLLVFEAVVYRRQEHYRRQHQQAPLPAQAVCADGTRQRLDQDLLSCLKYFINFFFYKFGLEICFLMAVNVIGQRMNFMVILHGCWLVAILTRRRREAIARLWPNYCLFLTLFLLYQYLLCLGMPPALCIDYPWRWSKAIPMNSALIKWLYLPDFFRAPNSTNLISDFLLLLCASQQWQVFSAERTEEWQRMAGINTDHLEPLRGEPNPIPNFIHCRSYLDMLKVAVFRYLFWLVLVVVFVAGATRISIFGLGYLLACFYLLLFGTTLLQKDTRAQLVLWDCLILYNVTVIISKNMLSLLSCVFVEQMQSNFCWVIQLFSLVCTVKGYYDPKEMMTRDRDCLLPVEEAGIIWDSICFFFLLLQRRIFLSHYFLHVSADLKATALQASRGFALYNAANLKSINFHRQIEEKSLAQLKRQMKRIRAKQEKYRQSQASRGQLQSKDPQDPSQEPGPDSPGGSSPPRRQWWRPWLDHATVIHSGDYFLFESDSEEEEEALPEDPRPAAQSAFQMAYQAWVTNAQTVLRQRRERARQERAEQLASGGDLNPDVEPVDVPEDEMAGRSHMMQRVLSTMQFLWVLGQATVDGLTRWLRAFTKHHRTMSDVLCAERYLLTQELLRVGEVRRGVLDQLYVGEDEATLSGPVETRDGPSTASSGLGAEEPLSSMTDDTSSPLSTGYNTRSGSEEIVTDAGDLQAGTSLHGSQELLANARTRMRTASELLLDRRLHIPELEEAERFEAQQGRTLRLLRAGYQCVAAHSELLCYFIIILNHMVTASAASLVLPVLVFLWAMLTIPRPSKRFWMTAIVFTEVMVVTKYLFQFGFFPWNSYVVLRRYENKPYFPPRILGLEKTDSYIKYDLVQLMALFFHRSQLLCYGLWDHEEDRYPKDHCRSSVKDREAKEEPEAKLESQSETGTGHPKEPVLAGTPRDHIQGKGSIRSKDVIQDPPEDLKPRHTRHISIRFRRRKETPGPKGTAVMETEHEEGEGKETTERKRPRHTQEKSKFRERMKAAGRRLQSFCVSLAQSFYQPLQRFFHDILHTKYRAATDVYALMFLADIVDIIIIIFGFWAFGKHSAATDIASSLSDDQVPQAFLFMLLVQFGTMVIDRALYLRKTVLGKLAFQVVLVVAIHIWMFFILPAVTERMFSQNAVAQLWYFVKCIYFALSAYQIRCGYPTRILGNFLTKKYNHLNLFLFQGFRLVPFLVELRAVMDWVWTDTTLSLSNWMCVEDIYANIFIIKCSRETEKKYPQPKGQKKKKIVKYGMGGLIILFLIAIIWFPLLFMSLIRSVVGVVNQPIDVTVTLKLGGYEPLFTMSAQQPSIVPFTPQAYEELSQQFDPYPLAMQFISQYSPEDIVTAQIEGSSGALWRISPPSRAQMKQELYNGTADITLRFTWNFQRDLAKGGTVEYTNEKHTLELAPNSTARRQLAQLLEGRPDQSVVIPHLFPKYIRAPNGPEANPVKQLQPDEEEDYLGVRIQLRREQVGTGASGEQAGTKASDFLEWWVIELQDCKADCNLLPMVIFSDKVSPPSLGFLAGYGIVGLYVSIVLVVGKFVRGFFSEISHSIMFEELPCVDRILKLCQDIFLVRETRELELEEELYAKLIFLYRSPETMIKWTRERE

In the case of Clc1cccc(Cl)c1CSc1nnc(-c2cnccn2)s1 [Yoda1], the “activation (percentage of activated cells, c-Fos)” value is reported as 74%.

Reference: patent EP4588510A1, “OPENING/CLOSING CONTROL DEVICE FOR TARGET FORCE-SENSITIVE ION CHANNEL THAT GENERATES SOUND WAVE PATTERN BY USING RESONANCE FREQUENCY(IES), AND BRAIN FUNCTION CONTROL DEVICE” (UIF (University Industry Foundation), Yonsei University, priority 2022, dated 2024)
